Values of other authors as cited in US20240366562A1, “GYNECOMASTIA AND/OR MASTALGIA TREATMENT” (priority 2021, published 2024).

How the values were obtained:
[1] = women taking Tamoxifen
[2] = tested on: estrogen pathway
[3] = human subjects who ingested I3C
[4] = tested on: estrogen-dependent human MCF-7 breast cancer cell line
[5] = tested on: mammary tumors; details: rodents
[6] = molecular target: T1, estrogen receptor (Homo sapiens, UniProt P03372)
T1 sequence (P03372 1-595): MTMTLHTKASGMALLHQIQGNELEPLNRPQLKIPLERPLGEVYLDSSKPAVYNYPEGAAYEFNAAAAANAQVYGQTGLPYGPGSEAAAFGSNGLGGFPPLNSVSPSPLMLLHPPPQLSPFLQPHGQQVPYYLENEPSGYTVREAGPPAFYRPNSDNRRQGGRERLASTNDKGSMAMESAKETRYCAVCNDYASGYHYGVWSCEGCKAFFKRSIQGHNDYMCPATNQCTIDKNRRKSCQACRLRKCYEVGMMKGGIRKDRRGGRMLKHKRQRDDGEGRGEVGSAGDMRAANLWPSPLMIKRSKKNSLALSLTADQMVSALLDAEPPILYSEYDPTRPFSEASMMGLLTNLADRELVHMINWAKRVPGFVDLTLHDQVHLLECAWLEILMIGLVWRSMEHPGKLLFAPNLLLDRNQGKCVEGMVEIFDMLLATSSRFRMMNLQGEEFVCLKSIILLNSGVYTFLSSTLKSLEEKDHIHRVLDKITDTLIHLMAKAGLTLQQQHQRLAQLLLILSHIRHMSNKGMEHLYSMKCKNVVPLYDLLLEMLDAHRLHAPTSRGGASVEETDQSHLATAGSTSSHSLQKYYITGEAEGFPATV

SMILES	Tamoxifen metabolites [1]	Competes with estrogen [2]	Enhances 2HE1 excretion [2]	Inhibits estrogen synthesis [2]	Lowers circulating estrogen [2]	Triggers degradation of ERα [2]	Side effects [3]	Expression of CDK6 [4]	Formation of spontaneous and carcinogen-induced mammary tumors [5]	Side effects [5]	Competition with estrogen for estrogen receptor binding [6]
c1ccc2c(Cc3c[nH]c4ccccc34)c[nH]c2c1 [DIM, 3,3′-diindolylmethane]	decreases in Tamoxifen metabolites										
CC/C(=C(\c1ccccc1)c1ccc(OCCN(C)C)cc1)c1ccccc1 [Tamoxifen, reference compound]		yes	no	no	no	no					
OCc1c[nH]c2ccccc12 [Compound I3C, Indole-3-carbinole]		no	yes	yes	yes	yes	no side effects	down-regulates	reduce the formation	no apparent side effects	fail to compete
